Results: patent publication US6875760B2 (Novo Nordisk A/S, priority 1999, dated 2005)

These molecules were tested against T1, cloned human glucagon receptor (Homo sapiens, UniProt P47871) (assay: Glucagon Binding Assay (II)). Details: plasma membranes of BHK cells expressing the receptor; read-out: Glu Bd Assay (II) IC50.
T1 construct: expressed in transfected cells; plasma membrane preparation
T1 sequence (P47871 26-477): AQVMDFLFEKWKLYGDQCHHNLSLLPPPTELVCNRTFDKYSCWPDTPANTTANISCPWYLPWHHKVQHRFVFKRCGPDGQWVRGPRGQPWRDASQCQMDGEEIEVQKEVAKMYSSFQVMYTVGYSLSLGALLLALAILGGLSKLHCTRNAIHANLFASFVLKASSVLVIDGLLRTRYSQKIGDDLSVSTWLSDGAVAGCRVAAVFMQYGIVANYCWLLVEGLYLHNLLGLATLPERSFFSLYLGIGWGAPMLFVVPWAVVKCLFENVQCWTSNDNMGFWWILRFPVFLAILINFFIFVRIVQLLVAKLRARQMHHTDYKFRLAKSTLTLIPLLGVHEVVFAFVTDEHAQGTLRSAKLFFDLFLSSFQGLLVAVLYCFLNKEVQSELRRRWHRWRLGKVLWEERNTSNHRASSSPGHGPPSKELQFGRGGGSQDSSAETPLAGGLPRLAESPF
For `CCCCc1ccc(NC(=O)N(Cc2ccc(C(=O)NCCC(=O)O)cc2)C2Cc3ccccc3C2)cc1` [Example 112, 3-{4-[1-(2,3-Dihydro-1H-inden-2-yl)-3-(4-butylphenyl)ureidomethyl]benzoylamino)propionic acid], the IC50 was 0.22 µM.
`O=C(O)CCNC(=O)c1ccc(CN(Cc2cccc(Cl)c2)c2ccc(C3CCCCC3)cc2)cc1` [Example 583] was tested, and the IC50 was 0.205 µM.
`CC(C)(C)C1CCC(N(Cc2ccc(C(=O)NCCC(=O)O)s2)C(=O)Nc2ccc(OC(F)(F)F)cc2)CC1` (stereo not shown) [Example 113, 3-{5-[1-(4-tert-Butylcyclohexyl)-3-(4-trifluoromethoxyphenyl)ureidomethyl]thiophene-2-carbonylamino)propionic acid] was tested, and the IC50 was 0.254 µM.
`O=C(O)CCNC(=O)c1ccc(CN(CCc2ccc(Cl)cc2)C(=O)Nc2ccc(OCc3ccccc3)cc2)cc1` gave an IC50 of 0.4 µM.
Molecule `O=C(O)CCNC(=O)c1ccc(CN(C(=O)NCc2ccc(Cl)c(Cl)c2)c2ccc(C3CCCCC3)cc2)cc1` [Example 606, 3-{4-[1-(4-Cyclohexylphenyl)-3-(3,4-dichlorobenzyl)ureidomethyl]benzoylamino}propionic acid] has an IC50 of 0.098 µM.
`CC(C)(C)[C@H]1CC[C@H](N(Cc2ccc(C(=O)Nc3nn[nH]n3)cc2)C(=O)Nc2cc(Cl)cc(Cl)c2)CC1` [Example 174, 4-[1-(trans-4-tert-Butylcyclohexyl)-3-(3,5-dichlorophenyl)ureidomethyl]-N-(2H-tetrazol-5-yl)benzamide] showed an IC50 of 0.011 µM.
`C[C@@H](C1CCCCC1)N(Cc1ccc(C(=O)NCCC(=O)O)cc1)C(=O)Nc1ccc(OC(F)(F)F)cc1` [Example 139, 3-{4-[1-((1S)-1-Cyclohexylethyl)-3-(4-trifluoromethoxyphenyl)ureidomethyl]benzoylamino)propionic acid] gave an IC50 of 0.379 µM.
Molecule `CC(C)(C)[C@H]1CC[C@@H](N(Cc2ccc(C(=O)NCCC(=O)O)cc2)NC(=O)c2ccc(F)c(F)c2)CC1` [Example 589, 3-{4-[N-(cis-4-tert-Butylcyclohexyl)-N′-(3,4-difluorobenzoyl)hydrazinomethyl]benzoylamino}propionic acid] has an IC50 of 0.541 µM.
`O=C(O)CCNC(=O)c1ccc(CN(C(=O)Nc2ccc(OC(F)(F)F)cc2)C2Cc3ccccc3C2)cc1` [Example 137, 3-{4-[1-(1-Indan-2-yl)-3-(4-trifluoromethoxyphenyl)ureidomethyl]benzoylamino)propionic acid] was tested, and the IC50 was 0.36 µM.
`CC(C)(C)C1CCC(N(Cc2ccc(C(=O)NCCC(=O)O)cc2)C(=O)Nc2cc(Cl)nc(Cl)c2)CC1` (stereo not shown) [Example 103, 3-{4-[1-(4-tert-Butylcyclohexyl)-3-(2,6-dichloropyridin-4-yl)ureidomethyl]benzoylamino)propionic acid] gave an IC50 of 0.15 µM.
With `Cc1cc(C)c(Cc2ccc(C(=O)NN(Cc3ccc(C(=O)NCCC(=O)O)cc3)c3ccc(C4CCCCC4)cc3)o2)c(C)c1` [Example 592, 3-(4-{N-(4-Cyclohexylphenyl)-N′-[5-(2,4,6-trimethylbenzyl)furan-2-carbonyl]hydrazinomethyl}benzoylamino)propionic acid] the IC50 was 0.016 µM.
Work on `CCCCc1ccc(N(Cc2ccc(C(=O)NCCC(=O)O)cc2)C(=O)Nc2ccc(OC(F)(F)F)cc2)cc1` [drawing 1186] yielded an IC50 of 0.013 µM.
Molecule `O=C(O)CCNC(=O)c1ccc(CN(C(=O)Nc2ccc(OC(F)(F)F)cc2)C2CCC(C3CCCCC3)CC2)cc1` (stereo not shown) [Example 577, 3-{4-[1-(4-Cyclohexylcyclohexyl)-3-(4-trifluoromethoxyphenyl)ureidomethyl]benzoylamino}propionic acid] has an IC50 of 0.018 µM.
`CC(C)(C)[C@H]1CC[C@H](N(Cc2ccc(C(=O)NCCC(=O)O)cc2)Cc2cc(Cl)cc(Cl)c2)CC1` [Example 580, 3-(4-{[(trans-4-tert-Butylcyclohexyl)-(3,5-dichlorobenzyl)amino]methyl}benzoylamino)propionic acid] was tested, and the IC50 was 0.057 µM.
For `CC(C)(C)C1CCC(N(Cc2ccc(S(=O)(=O)NCCC(=O)O)cc2)C(=O)Nc2ccc(SC(F)(F)F)cc2)CC1` (stereo not shown) [Example 105, 3-{4-[1-(4-tert-Butylcyclohexyl)-3-(4-trifluoromethylsulfanylphenyl)ureidomethyl]benzenesulfonylamino)propionic acid], the IC50 was 0.446 µM.
In the case of `CC(C)(C)C1CCC(N(Cc2ccc(C(=O)NCc3nn[nH]n3)cc2)C(=O)Nc2cc(Cl)cc(Cl)c2)CC1` (stereo not shown) [Example 173, 4-[1-(4-tert-Butylcyclohexyl)-3-(3,5-dichlorophenyl)ureidomethyl]-N-(2H-tetrazol-5-ylmethyl)benzamide], the IC50 is reported as 0.023 µM.
`CCCCOC(=O)c1ccc(NC(=O)N(Cc2ccc(C(=O)NCCC(=O)O)cc2)C2CCCC(C)C2)cc1` (stereo not shown) gave an IC50 of 0.278 µM.
For `O=C(Nc1nn[nH]n1)c1ccc(CN(C(=O)Nc2ccc(OC(F)(F)F)cc2)[C@H]2CC[C@H](C3CCCCC3)CC2)cc1` [Example 576, 4-[1-(4-trans-Cyclohexylcyclohexyl)-3-(4-trifluoromethoxyphenyl)ureidomethyl]-N-(2H-tetrazol-5-yl)benzamide], the IC50 was 0.004 µM.
Molecule `Cc1ccc(NC(=O)N(Cc2ccc(S(=O)(=O)NCCC(=O)O)cc2)C2CCC(C(C)(C)C)CC2)cc1F` (stereo not shown) [Example 107, 3-{4-[1-(4-tert-Butylcyclohexyl)-3-(3-fluoro-4-methylphenyl)ureidomethyl]benzenesulfonylamino)propionic acid] has an IC50 of 1.2 µM.

Same assay, conditions: screened at 1 μM; library compounds; read-out: displacement of the glucagon tracer when screened at 1 μM concentration in the glucagon binding assay II
`CCCCOc1ccc(NC(=O)N(Cc2ccc(C(=O)NCCC(=O)O)cc2)Cc2ccc(C(F)(F)F)cc2)cc1` [Example 119, 3-{4-[1-(4-Trifluoromethylbenzyl)-3-(4-butoxyphenyl)ureidomethyl]benzoylamino)propionic acid] showed an inhibition at 1 µM greater than 50%.
`O=C(O)CCNC(=O)c1ccc(CN(Cc2ccc(C(F)(F)F)cc2)C(=O)Nc2ccc(SC(F)(F)F)cc2)s1` [Example 131, 3-{5-[1-(4-Trifluoromethylbenzyl)-3-(4-trifluoromethylsulfanylphenyl)ureidomethyl]thiophene-2-carbonylamino)propionic acid] gave an inhibition at 1 µM greater than 50%.
In the case of `O=C(O)CCNC(=O)c1ccc(CN(C(=O)Nc2ccc(OC(F)(F)F)cc2)C2C[C@H]2c2ccccc2)cc1` (stereo in doubt) [Example 187, 3-{4-[1-(2-Phenylcyclopropyl)-3-(4-trifluoromethoxyphenyl)ureidomethyl]benzoylamino}propionic acid], the inhibition at 1 µM is reported as greater than 50%.
In the case of `CC(C)(C)C1CCC(N(Cc2ccc(C(=O)Nc3ncnc4[nH]ncc34)cc2)C(=O)Nc2ccc(Cl)cc2)CC1` (stereo not shown) [Example 164, 4-[1-(4-tert-Butylcyclohexyl)-3-(4-chlorophenyl)ureidomethyl]-N-(1H-pyrazolo[3,4-d]pyrimidin-4-yl)benzamide], the inhibition at 1 µM is reported as greater than 50%.
For `O=C(O)CCNC(=O)c1ccc(CN(C(=O)Nc2ccc(Cl)c(C(F)(F)F)c2)c2nc3cc(Cl)c(Cl)cc3[nH]2)cc1` [Example 195, 3-{4-[3-(4-Chloro-3-trifluoromethylphenyl)-1-(5,6-dichloro-1H-benzimidazol-2-yl)ureidomethyl]benzoylamino}propionic acid], the inhibition at 1 µM was greater than 50%.
With `CC(C)(C)C1CCC(N(Cc2ccc(OCCCC(=O)O)cc2)C(=O)Nc2cccc(SC(F)(F)F)c2)CC1` (stereo not shown) [Example 198, 4-{4-[1-(4-tert-Butylcyclohexyl)-3-(3-trifluoromethylsulfanylphenyl)ureidomethyl]phenoxy}butyric acid] the inhibition at 1 µM was greater than 50%.
`O=C(O)CCNC(=O)c1ccc(CN(Cc2ccccc2OC(F)(F)F)C(=O)Nc2ccc(SC(F)(F)F)cc2)s1` [Example 126, 3-{5-[1-(2-Trifluoromethoxybenzyl)-3-(4-trifluoromethylsulfanylphenyl)ureidomethyl]thiophene-2-carbonylamino)propionic acid] showed an inhibition at 1 µM greater than 50%.
Molecule `O=C(O)CCNC(=O)c1ccc(CN(Cc2ccc(Cl)cc2)Cc2ccc(Cl)cc2)s1` [Example 148, 3-(5-{[Bis-(4-chlorobenzyl)amino]methyl}thiophene-2-carbonylamino)propionic acid] has an inhibition at 1 µM greater than 50%.
In the case of `O=C(O)CCCOc1ccc(CN(C(=O)Nc2ccc(OC(F)(F)F)cc2)c2ccc(C3CCCCC3)cc2)cc1` [Example 216, 4-{4-[1-(4-Cyclohexylphenyl)-3-(4-trifluoromethoxyphenyl)ureidomethyl]phenoxy}butyric acid], the inhibition at 1 µM is reported as greater than 50%.
Work on `COc1cc(CN(Cc2ccc(C(=O)NCCC(=O)O)cc2)C(=O)Nc2ccc3c(c2)OCO3)ccc1O` [Example 122, 3-{4-[1-(4-Hydroxy-3-methoxybenzyl)-3-(3,4-methylenedioxyphenyl)ureidomethyl]benzoylamino)propionic acid] yielded an inhibition at 1 µM greater than 50%.
Molecule `CCCCOc1ccc(NC(=O)N(Cc2ccc(C(C)(C)C)cc2)Cc2ccc(C(=O)NCCC(=O)O)s2)cc1` [Example 129, 3-{5-[1-(4-tert-Butylbenzyl)-3-(4-butoxyphenyl)ureidomethyl]thiophene-2-carbonylamino)propionic acid] has an inhibition at 1 µM greater than 50%.
In the case of `O=C(O)CCNC(=O)c1ccc(CN(CCC(c2ccccc2)c2ccccc2)Cc2ccc(C(F)(F)F)cc2)s1` [Example 142, 3-(5-{[(3,3-Diphenylpropyl)-(4-trifluoromethylbenzyl)amino]methyl}thiophene-2-carbonylamino)propionic acid], the inhibition at 1 µM is reported as greater than 50%.
Work on `O=C(O)CCNC(=O)c1ccc(CN(C(=O)Nc2ccc(Cl)c(C(F)(F)F)c2)c2ccc(C3CCCCC3)cc2)o1` [Example 212, 3-({5-[3-(4-Chloro-3-trifluoromethylphenyl)-1-(4-cyclohexylphenyl)ureidomethyl]furan-2-carbonyl}amino)propionic acid] yielded an inhibition at 1 µM greater than 50%.
Molecule `CC1(C)C2CCC(CN(Cc3ccc(C(=O)NCCC(=O)O)cc3)C(=O)Nc3cccc(SC(F)(F)F)c3)C1C2` (stereo not shown) [Example 204, 3-{4-[1-(6,6-Dimethylbicyclo[3.1.1]hept-2-ylmethyl)-3-(3-trifluoromethylsulfanylphenyl)ureidomethyl]benzoylamino}propionic acid] has an inhibition at 1 µM greater than 50%.
Molecule `CC(C)(C)C1CCC(N(Cc2ccc(OCCCC(=O)O)cc2)C(=O)Nc2ccc(C(=O)O)cc2)CC1` (stereo not shown) [Example 226, 4-{3-(4-tert-Butylcyclohexyl)-3-[4-(3-carboxypropoxy)benzyl]ureido}benzoic acid] has an inhibition at 1 µM greater than 50%.
